Source: patent publication US8143222B2, “Modular platform for targeted therapeutic delivery” (Washington University, priority 2007, dated 2012)
No end group written: not given here.

Legend:
[1] = test system: human pancreatic cancer cell lines; test: S2-BH3 apoptosis in human pancreatic cancer cell lines; type: cell-based; settings: up to 10 μM
Protocol: (§1) Tumor Cells are seeded at a density of 0.2 to 0.5×10^6 cells per mL in 12-well plates and incubated at 37° C. for at least 24 hours (murine cancer cells) or 48 hours (Human cancer cells). After incubation, S2-fusion protein is added to the cell culture medium. The cells are then incubated for 18 hours (active caspase 3) or 24 hours (TUNEL) at 37° C. in humidified 5% CO2. Apoptosis is detected by FACS analysis after staining cells for active caspase-3 (Cell Signaling, Boston, Mass.) or with the APO-BRDU kit (Phenix Flow Systems, San Diego, Calif.). Briefly, cells are washed with PBS, treated with trypsin-EDTA to remove adhesion molecules, and washed again. After centrifugation at 1,200 rpm for 10 min, cells are fixed with 1% paraformaldehyde and washed with PBS. After centrifugation at 1,800 rpm for 10 min, cells are fixed with 90% methanol at −20° C. and washed with PBS. Each pellet is resuspended in 1:100 anti-active caspase-3 antibody (1 μg/ml caspase 3, PBS with 5% FBS) or Br-duTP with TdT, and incubated overnight at 4° C. […] Cell fluorescence signals is determined using a FACScan flow cytometer (BD Biosciences) and analyzed with CellQuest software (BD Biosciences) to measure the percentage of apoptotic cells. […]

[2] = test system: murine pancreatic cancer cell lines; test: S2-BH3 apoptosis in murine pancreatic cancer cell lines; type: cell-based; settings: up to 10 μM
Protocol: as §1

[3] = test system: established murine pancreas cancers; test: systemic (intraperitoneal) S2-BH3 in mice with established pancreas cancers; settings: seven intraperitoneal doses over 14 days
Protocol: The intradermal location is used to facilitate accurate tumor measurements. Tumor diameter is measured with calipers every two days in two dimensions and the data are recorded. Mice are euthanized when the tumors reach 2 cm or ulcerate. In the subcutaneous model, 100,000 Panc-02 cells are utilized.
In these experiments, we have completed the first in vivo administration of our novel therapeutic.

[4] = test system: human pancreas cancer cells; test: apoptosis screen of TAT-CTMP fusion peptides, human cells; type: cell-based
Protocol: as §1

[5] = test system: murine pancreas cancer cells; test: apoptosis screen of TAT-CTMP fusion peptides, murine cells; type: cell-based
Protocol: as §1

[6] = test system: pancreas cancer cells; test: TAT-CTMP with radiation, apoptosis; type: cell-based; settings: cotreatment with radiation
Excerpt: CTMP binds to the C-terminal regulatory domain of Akt, inhibiting phosphorylation of Ser^473 and activation of Akt, and thereby promotes apoptosis. CTMP is highly conserved between mouse and human (85% of the residues are identical or conservative replacements) and has two functional domains, a highly structured N-terminal domain and a C-terminal thioesterase domain. Within the N-terminal domain there are four peptides that have structural elements that meet the criteria described by Maira et al (Science 294: 374-380, 2001) as mediating the interaction with Akt. In these experiments, we synthesized TAT-fusion peptides of each of these four domains and screened them for their ability to induce apoptosis in pancreas cancer cells. […] In FIG. 4, the left panel (A), presents a helical wheel diagram (Schiffer, M. and Edmundson, A. B., Biophys. J. 7, 121-135, 1967) of the active domain of CTMP. […] Furthermore, cotreatment with TAT-CTMP4 and radiation results in increased apoptosis (FIG. 4, right panel).

[7] = test system: AsPC-1; test: Tat-CTMP with gemcitabine, % active caspase-3 by flow cytometry; type: cell-based, human; settings: in the presence of gemcitabine (30 nM); 24 hours
Protocol: In these experiments, a combination of gemcitabine, a commonly-used chemotherapeutic drug for pancreas cancer and Tat-CTMP were tested in our in vitro model. In this study, two human pancreas adenocarcinoma cell lines (Panc-1 and AsPC-1) were treated with TAT-CTMP and TAT-CTMP in the presence and absence of gemcitabine (30 nM). […] Cells were subsequently harvested and % active caspase-3 was assessed by flow cytometry. Each experimental group represents an n=3. […] This experiment was repeated twice with multiple murine and human lines with similar results. (B and C) Antitumor effects of CTMP4 are the result of inhibition of Akt3 and its downstream effectors. […] Samples were treated for 1 hour prior to preparation of cell lysates. Immunoblots were subsequently prepared and stained with (B) anti-total AKT and phospho-AKT ([…]) and (C) anti-total GSK-3β and phospho GSK-3β.

[8] = test system: Akt; test: Western blot of phospho-Akt (Ser-473) in cell lysates; type: cell-based, human; settings: Panc-1; one hour after treatment; wortmannin 1 μM, TAT-CTMP 10 μM
Protocol: In addition we looked at down stream effector GSK-3β using antibodies directed at GSK-3β and phospho GSK-3β.
Cells were subsequently harvested and % active caspase-3 was assessed by flow cytometry. Each experimental group represents an n=3. […] This experiment was repeated twice with multiple murine and human lines with similar results. (B and C) Antitumor effects of CTMP4 are the result of inhibition of Akt3 and its downstream effectors. […] Samples were treated for 1 hour prior to preparation of cell lysates. Immunoblots were subsequently prepared and stained with (B) anti-total AKT and phospho-AKT (Ser^473) and (C) anti-total GSK-3β and phospho GSK-3β.

Row | Compound | apoptosis [1] | apoptosis [2] | tumor growth rate ([3]; 400 μg) | Median Survival ([3]; n = 12 mice per group) | apoptosis [4] | apoptosis [5] | radiation-induced apoptosis [6] | apoptosis (% active caspase-3) [7] | active phospho-AKT (Ser-473) [8]
1 | S2-BH3-in: control peptide: SW141 sigma-2 amino acid coupled to mutated inactive BH3 sequence EIWIAQEARRIGAEFNAYYAR (SEQ ID NO: 3) (also: SW141 sigma-2 ligand conjugated; listed as Homo sapiens) | no appreciable apoptosis | no appreciable apoptosis | not | 35 days |  |  |  |  | 
2 | COc1ccc(C)cc1NC(=O)OC1C[C@H]2CCC[C@@H](C1)N2CCCCCCN (some centres unmarked) [SV119] | low, concentration-dependent level of apoptosis | low, concentration-dependent level of apoptosis |  |  |  |  |  |  | 
3 | TAT-CTMP: TAT-fusion peptide of the active N-terminal domain peptide CTMP4 of CTMP (YGRKKRRQRRRLDPKLMKEEQMSQAQLFTRSFDDGL) |  |  |  |  | induced appreciable apoptosis | induced appreciable apoptosis | sensitizes pancreas cancer cells to radiation-induced apoptosis in a dose dependent fashion | additive increase in apoptosis | decreased active phospho-AKT
